Source: patent US8361971B2, “Tablet formulation of ezatiostat” (Telik, Inc., priority 2010, dated 2013)

What was measured:
Type in all cases: physicochemical
[1] = Water content of tablets on storage
Description: Karl Fischer analyses for water determination were performed on a Mettler Toledo DL39 Karl Fischer titrator. About 10-15 mg of sample was placed in the KF titration vessel containing approximately 100 mL of Hydranal®—Coulomat AD reagent and mixed for 60 seconds to ensure dissolution. The dissolved sample was then titrated by means of a generator electrode which produces iodine by electrochemical oxidation. […]
(§1) Tablets of ansolvate form D, were packaged with and without desiccant (Sorb-It Cannister, 1 gram). Fifty tablets were packaged in a round, white 1500 mL bottle with a screw cap over an induction seal. Impurities were assayed by HPLC. When stored at 25° C./60% RH with desiccant for 3 months, no increase in total impurities was observed. When stored at 40° C./75% RH with desiccant for 3 months, total impurities increased only by 0.3%. When stored at 40° C./75% RH without desiccant for 3 months, total impurities still increased by 1.1%. As tabulated below, the presence of desiccant appears to further increase the stability of the ansolvate form D. Even though the dissolution rate of tablets containing polymorph D from one batch was below specification (<70%) at an initial test as well as after 3 months at 25° C./60% RH with desiccant, the subsequent batches met the required specification.

[2] = X-ray diffraction, polymorphic form in tablets; conditions: for X-ray Diffraction: tablets
Description: X-ray powder diffraction (XRPD) analyses were performed on a Shimadzu XRD-6000 X-ray powder diffractometer using Cu Kα radiation from a long fine focus X-ray tube, operated at 40 kV, 40 mA. The divergence and scattering slits were set at 1° and the receiving slit was set at 0.15 mm. Diffracted radiation was detected by a NaI scintillation detector. A θ-2θ continuous scan at 3°/min (0.4 sec/0.02° step) from 2.5°-40° 2θ was used. A silicon standard was analyzed to check alignment of the instrument. Data were collected and analyzed using XRD-6000 v.4.1 software.
Stress experiments: solids were stressed under different temperature and/or relative humidity (RH) environments for a measured time period. Specific RH values were achieved by placing the sample inside sealed chambers containing saturated salt solutions. Samples were analyzed by XRPD immediately after removal from the stress environment.
(§2) As described above, form E converts to form B simply during tableting.
as §1

[3] = Assay and impurities by HPLC of tablets on storage; set-up: key to Individual Impurities RRT = 0.74 / Individual Impurities RRT = 0.83 / TLK 236 RRT = 0.88 / Individual Impurities RRT = 0.94 / Individual Impurities RRT = 0.96 / Total impurities / Individual Impurities RRT = 0.80 / Individual Impurities RRT = 0.81 / Individual Impurities RRT = 0.86 / Individual Impurities RRT = 0.99: impurity content in %
Description: As used herein, “impurity” refers to one or more of: TLK 236, another polymorphic form of ezatiostat hydrochloride including without limitation form A, B, C, E, or F, and any other compound other than ezatiostat hydrochloride ansolvate, which may be identified by HPLC. TLK 236 is a monoester derived from the partial hydrolysis of ezatiostat where the phenyl glycine moiety remains esterified.
as §2, §1

[4] = Assay and impurities by HPLC of tablets on storage; set-up: key to Individual Impurities RRT = 0.74 / TLK 236 RRT = 0.88 / Individual Impurities RRT = 0.96 / Total impurities: impurity content in %; conditions: 6 Month at 40° C./75% RH without desiccant, hydrochloride
[5] = Description (appearance) of tablets on storage
Description: as §1

[6] = Tablet dissolution (Q at 45 min); conditions: for Dissolution, Mean at 45 min: tablets
Description: Without being bound by theory, a higher dissolution rate relates to a higher amount of the active agent in the gastric fluid, which in turn relates to higher bioavailability of the active agent. A high bioavailability is desired, for example and without limitation, for reducing inter patient variability of drug exposure for a orally administered agent such as ezatiostat hydrochloride. […] The aqueous solubility can be measured in a variety of aqueous solvents, including without limitation, water, 0.9% aqueous NaCl, 5% dextrose for injection, phosphate buffered saline, and generally aqueous solutions having a pH of less than about 5. Such solvents may include suitable buffers and other salts. […]
as §1

[7] = 3 Month at 40° C./75% RH without desiccant, hydrochloride
[8] = 6 Month at 40° C./75% RH without desiccant, hydrochloride
[9] = 3 Month at 40° C./75% RH without desiccant
[10] = 3 Month at 25° C./60% RH with desiccant
[11] = 3 Month at 40° C./75% RH with desiccant
[12] = 3 Month at 40° C./75% RH without desiccant, listed as Form D Ansolvate, hydrochloride
[13] = Initial, listed as Form D Ansolvate, hydrochloride

## CCOC(=O)[C@@H](N)CCC(=O)N[C@@H](CSCc1ccccc1)C(=O)N[C@@H](C(=O)OCC)c1ccccc1.Cl [Polymorph Form A, ezatiostat hydrochloride]
[1]; [7]
  Water Content: 1.7%
[1]; [8]
  Water Content: 1.9%
[1]; Initial, hydrochloride
  Water Content: 2.1%
[2]; during tablet manufacture, listed as solvate form A, hydrochloride
  polymorphic conversion during tablet manufacture: converting into a mixture of forms A and D during manufacture
[2]; [7]
  X-ray Diffraction: Polymorph A
[2]; [8]
  X-ray Diffraction: Polymorph A
[2]; Initial, hydrochloride
  X-ray Diffraction: Polymorph A
[3]; [7]
  Assay (HPLC): 94.1 % Label Claim
  Individual Impurities RRT = 0.74: 0.16
  Individual Impurities RRT = 0.80: 0.08
  Individual Impurities RRT = 0.81: 0.07
  Individual Impurities RRT = 0.83: 0.10
  Individual Impurities RRT = 0.94: 0.07
  Individual Impurities RRT = 0.96: 0.16
  Individual Impurities RRT = 0.99: 0.07
  TLK 236 RRT = 0.88: 1.99
  Total impurities: 2.7
[3]; [8]
  Individual Impurities RRT = 0.80: 0.14
  Individual Impurities RRT = 0.81: 0.05
[3]; Initial, hydrochloride
  Assay (HPLC): 97.2 % Label Claim
  Individual Impurities RRT = 0.74: 0.13
  Individual Impurities RRT = 0.83: 0.46
  Individual Impurities RRT = 0.96: 0.16
  TLK 236 RRT = 0.88: 0.45
  Total impurities: 1.2
[4]
  Assay (HPLC): 91.5 % Label Claim
  Individual Impurities RRT = 0.59/0.62: 0.07
  Individual Impurities RRT = 0.74: 0.15
  Individual Impurities RRT = 0.96: 0.21
  TLK 236 RRT = 0.88: 2.92
  Total impurities: 3.5
[5]; [9]
  Description: Off-white
[5]; [8]
  Description: Off-white
[5]; Initial
  Description: White round
[6]; [7]
  Dissolution, Mean at 45 min: Mean = 74 % of label claim
[6]; [8]
  Dissolution, Mean at 45 min: Mean = 71 % of label claim
[6]; Initial, hydrochloride
  Dissolution, Mean at 45 min: Mean = 12 % of label claim

## CCOC(=O)[C@@H](N)CCC(=O)N[C@@H](CSCc1ccccc1)C(=O)N[C@@H](C(=O)OCC)c1ccccc1.Cl [Polymorph Form D, ezatiostat hydrochloride]
[1]; [10]
  Water Content: 0.5%
[1]; [11]
  Water Content: 0.6%
[1]; [7]
  Water Content: 0.8%
[1]; [12]
  Water Content: 0.8%
[1]; [8]
  Water Content: 0.8%
[1]; Initial, hydrochloride
  Water Content: 0.9%
[1]; [13]
  Water Content: 0.9%
[2]; 40° C. and 75% RH without a desiccant, form D 6 months, form E 3 months, listed as ansolvate form D, hydrochloride
  polymorphic conversion on storage: resistance to conversion to a solvate form
[2]; [10]
  X-ray Diffraction: Polymorph D
[2]; [11]
  X-ray Diffraction: Polymorph D
[2]; [7]
  X-ray Diffraction: Polymorph D
[2]; [12]
  X-ray Diffraction: Polymorph D
[2]; [8]
  X-ray Diffraction: Polymorph D
[2]; Initial, hydrochloride
  X-ray Diffraction: Polymorph D
[2]; [13]
  X-ray Diffraction: Polymorph D
[3]; [10]
  Assay (HPLC): 99.7 % Label Claim
  Individual Impurities RRT = 0.74/0.72: 0.16
  Individual Impurities RRT = 0.96: 0.19
  TLK 236 RRT = 0.88: 0.34
  Total impurities: 0.7
[3]; [11]
  Assay (HPLC): 100.8 % Label Claim
  Individual Impurities RRT = 0.74/0.72: 0.16
  Individual Impurities RRT = 0.83: 0.09
  Individual Impurities RRT = 0.94: 0.06
  Individual Impurities RRT = 0.96: 0.19
  TLK 236 RRT = 0.88: 0.53
  Total impurities: 1.0
[3]; [9]
  Individual Impurities RRT = 0.74/0.72: 0.18
[3]; [7]
  Assay (HPLC): 100.3 % Label Claim
  Individual Impurities RRT = 0.74: 0.21
  Individual Impurities RRT = 0.83: 0.07
  Individual Impurities RRT = 0.94: 0.07
  Individual Impurities RRT = 0.96: 0.19
  TLK 236 RRT = 0.88: 1.33
  Total impurities: 1.9
[3]; [12]
  Assay (HPLC): 100.3 % Label Claim
  Individual Impurities RRT = 0.83: 0.08
  Individual Impurities RRT = 0.94: 0.07
  Individual Impurities RRT = 0.96: 0.18
  TLK 236 RRT = 0.88: 1.3
  Total impurities: 1.8
[3]; [8]
  Individual Impurities RRT = 0.83: 0.09
[3]; 25° C./60% RH with desiccant for 3 months
  increase in total impurities: no increase
[3]; 40° C./75% RH with desiccant for 3 months
  increase in total impurities: 0.3%
[3]; 40° C./75% RH without desiccant for 3 months
  increase in total impurities: 1.1%
[3]; Initial
  Individual Impurities RRT = 0.74/0.72: 0.21
[3]; Initial, hydrochloride
  Assay (HPLC): 101.4 % Label Claim
  Individual Impurities RRT = 0.74: 0.21
  Individual Impurities RRT = 0.96: 0.18
  TLK 236 RRT = 0.88: 0.35
  Total impurities: 0.7
[3]; [13]
  Assay (HPLC): 101.4 % Label Claim
  Individual Impurities RRT = 0.96: 0.18
  TLK 236 RRT = 0.88: 0.35
  Total impurities: 0.7
[4]
  Assay (HPLC): 96.5 % Label Claim
  Individual Impurities RRT = 0.59/0.62: 0.08
  Individual Impurities RRT = 0.74: 0.20
  Individual Impurities RRT = 0.96: 0.23
  TLK 236 RRT = 0.88: 2.07
  Total impurities: 2.7
[5]; [10]
  Description: White round
[5]; [11]
  Description: Off-white
[5]; [9]
  Description: Off-white
[5]; [8]
  Description: Brown round
[5]; Initial
  Description: White round
[6]; as part of a tablet, measured in 0.1 molar HCl
  aqueous dissolution rate: higher aqueous dissolution rate than polymorphic form E
[6]; 3 Month at 25° C./60% RH with desiccant, listed as Form D Ansolvate, hydrochloride
  Dissolution, Mean at 45 min: Mean = 46 % of label claim
[6]; 3 Month at 25° C./60% RH with desiccant, listed as polymorph D, hydrochloride
  Dissolution, Mean at 45 min: < 70 % of label claim
[6]; [11]
  Dissolution, Mean at 45 min: Mean = 76 % of label claim
[6]; [7]
  Dissolution, Mean at 45 min: Mean = 88 % of label claim
[6]; [12]
  Dissolution, Mean at 45 min: Mean = 88 % of label claim
[6]; [8]
  Dissolution, Mean at 45 min: Mean = 81 % of label claim
[6]; Initial, hydrochloride
  Dissolution, Mean at 45 min: Mean = 51 % of label claim
[6]; [13]
  Dissolution, Mean at 45 min: Mean = 51 % of label claim
[6]; Initial, listed as polymorph D, hydrochloride
  Dissolution, Mean at 45 min: < 70 % of label claim

## CCOC(=O)[C@@H](N)CCC(=O)N[C@@H](CSCc1ccccc1)C(=O)N[C@@H](C(=O)OCC)c1ccccc1.Cl [Polymorphic form B, ezatiostat hydrochloride]
[3]; Total impurities of Tables 5-7
  rate of decomposition relative to ansolvate form D: more than double the rate of decomposition of the ansolvate form D
